Assay results taken from US9422267B2, “Fused pyrimidine compounds and use thereof” (Medivation Technologies, Inc., priority 2012, dated 2016).
Values belong to the compound of their own block, whether it stands above or below them.

Assays:
[1] = molecular target: FGR (Homo sapiens, UniProt P09769); experiment: Caliper kinase profiling: FGR; type: biochemical
[2] = molecular target: FGFR2 (Homo sapiens, UniProt P21802); experiment: Caliper kinase profiling: FGFR2; type: biochemical
[3] = molecular target: LYN (Homo sapiens, UniProt P07948); experiment: Caliper kinase profiling: LYN; type: biochemical
[4] = molecular target: EPHB4 (Homo sapiens, UniProt P54760); experiment: Caliper kinase profiling: EPHB4; type: biochemical; details: EPHB4, 1 μM; read-out: Average % Inh @ 1 μM
[5] = molecular target: Hck (Homo sapiens, UniProt P08631); experiment: Caliper kinase profiling: Hck; type: biochemical
[6] = molecular target: T1, ABL (Homo sapiens, UniProt P00519); experiment: Caliper kinase profiling: ABL; type: biochemical; details: read-out: Average % Inh @ 1 μM
T1 construct: purchased Caliper LifeSciences (ProfilerPro Kinase Selectivity Assay Kits)

[7] = molecular target: EPHB1 (Homo sapiens, UniProt P54762); experiment: Caliper kinase profiling: EPHB1; type: biochemical; details: EPHB1, 1 μM; read-out: Average % Inh @ 1 μM
[8] = molecular target: Flt3(D835Y) (Homo sapiens, UniProt P36888, D835Y); experiment: Caliper kinase profiling: Flt3(D835Y); type: biochemical; details: read-out: Average % Inh @ 1 μM
[9] = molecular target: EPHA2 (Homo sapiens, UniProt P29317); experiment: Caliper kinase profiling: EPHA2; type: biochemical; details: EPHA2, 1 μM; read-out: Average % Inh @ 1 μM
[10] = molecular target: T2, BMX (Homo sapiens, UniProt P51813); experiment: Caliper kinase profiling: BMX; type: biochemical
T2 sequence (P51813 1-675): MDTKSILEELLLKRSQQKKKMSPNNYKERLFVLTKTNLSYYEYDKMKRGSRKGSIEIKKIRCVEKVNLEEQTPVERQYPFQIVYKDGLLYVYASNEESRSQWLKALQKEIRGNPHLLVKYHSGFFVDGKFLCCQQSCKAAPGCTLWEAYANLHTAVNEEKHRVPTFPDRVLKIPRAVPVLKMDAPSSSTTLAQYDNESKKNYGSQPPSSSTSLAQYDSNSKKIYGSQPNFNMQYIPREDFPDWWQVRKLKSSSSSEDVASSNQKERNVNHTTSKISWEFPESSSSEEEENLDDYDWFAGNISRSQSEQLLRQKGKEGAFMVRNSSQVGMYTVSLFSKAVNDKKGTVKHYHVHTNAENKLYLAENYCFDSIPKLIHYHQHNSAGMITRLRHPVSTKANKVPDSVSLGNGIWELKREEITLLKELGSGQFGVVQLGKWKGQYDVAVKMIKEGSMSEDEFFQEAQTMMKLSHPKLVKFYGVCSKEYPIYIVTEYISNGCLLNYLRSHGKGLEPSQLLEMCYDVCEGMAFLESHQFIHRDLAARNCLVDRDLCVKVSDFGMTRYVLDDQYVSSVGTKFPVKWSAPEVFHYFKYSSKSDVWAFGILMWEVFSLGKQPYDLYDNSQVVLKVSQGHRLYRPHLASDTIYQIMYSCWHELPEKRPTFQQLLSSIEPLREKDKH

[11] = molecular target: FGFR1 (Homo sapiens, UniProt P11362); experiment: Caliper kinase profiling: FGFR1; type: biochemical
[12] = tested on: AMPK; experiment: Caliper kinase profiling: AMPK; type: biochemical
Method: The compound was tested at concentrations of 1.0×10^−8 and 1.0×10^−9 M in the RapidKinase192™ panel in duplicate. […] The screening was performed using the Caliper EZReader2, a 4-sipper LabChip, and ProfilerPro Kinase Selectivity Assay Kits 1 and 2. The assay measures the conversion of a fluorescent peptide substrate to a phosphorylated product. Briefly, the reaction mixture was introduced through a capillary sipper onto the microfluidic chip, where the substrate and product were electrophoretically separated and detected by laser-induced fluorescence. The time-dependent fluorescence signal indicates the extent of the reaction.

[13] = tested on: human breast cancer MCF7 cells; experiment: Efficacy in xenograft model of human breast cancer; type: in vivo, mice
Method: To evaluate the efficacy of tumor growth inhibition, the compound 8b was studied using human cancer mouse models. The models are prepared by subcutaneously or orthotopically implanting mice with human cancer cells. When the tumor size of the mice develops (e.g., reaches 100 mm^3), the mice are divided into groups for treatment with compound 8b (where different groups receiving the compound 8b may be administered different amounts of the compound 8b) or are provided no compound as a control. The mice are treated (e.g., orally administered a compound of the invention) for a period of time. During the course of the study, the tumor is measured and the weight of the mice is determined. After the treatment period, the mice are sacrificed shortly (e.g. 1 or 2 hours) after the final dose. Blood and tissue are collected for biochemical analysis.
To evaluate the efficacy of tumor growth inhibition, compound 8b was studied using a human breast cancer mouse model. […]
The appropriate amount of compound 8b was sonicated in a PEG-400 solution (80% w/v in case of Example B6B; and 50% w/v in case of Example B6C) to completely dissolve the compound, followed by dropwise addition of the required amount of H2O. […] During the course of the study, the tumor was measured and the weight of the mice was determined. […]

[14] = 10 nM, read-out: Average % Inh @ 10 nM
[15] = 100 nM, read-out: Average % Inh @ 100 nM
[16] = 1 μM, read-out: Average % Inh @ 1 μM

Sequence of FGR (P09769 whole entry): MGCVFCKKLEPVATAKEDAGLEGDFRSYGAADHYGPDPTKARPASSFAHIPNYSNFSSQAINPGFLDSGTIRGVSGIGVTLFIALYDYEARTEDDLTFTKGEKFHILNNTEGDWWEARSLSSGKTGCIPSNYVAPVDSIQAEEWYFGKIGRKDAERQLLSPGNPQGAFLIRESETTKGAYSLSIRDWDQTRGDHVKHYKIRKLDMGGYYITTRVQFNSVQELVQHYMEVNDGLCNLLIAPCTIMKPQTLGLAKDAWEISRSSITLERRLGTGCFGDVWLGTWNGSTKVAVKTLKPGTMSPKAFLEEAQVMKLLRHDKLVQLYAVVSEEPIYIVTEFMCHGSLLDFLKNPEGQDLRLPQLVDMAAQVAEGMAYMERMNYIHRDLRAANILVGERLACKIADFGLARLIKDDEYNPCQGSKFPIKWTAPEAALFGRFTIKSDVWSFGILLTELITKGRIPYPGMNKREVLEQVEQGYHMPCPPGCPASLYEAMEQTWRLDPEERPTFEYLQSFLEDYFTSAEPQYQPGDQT
Sequence of FGFR2 (P21802 22-821): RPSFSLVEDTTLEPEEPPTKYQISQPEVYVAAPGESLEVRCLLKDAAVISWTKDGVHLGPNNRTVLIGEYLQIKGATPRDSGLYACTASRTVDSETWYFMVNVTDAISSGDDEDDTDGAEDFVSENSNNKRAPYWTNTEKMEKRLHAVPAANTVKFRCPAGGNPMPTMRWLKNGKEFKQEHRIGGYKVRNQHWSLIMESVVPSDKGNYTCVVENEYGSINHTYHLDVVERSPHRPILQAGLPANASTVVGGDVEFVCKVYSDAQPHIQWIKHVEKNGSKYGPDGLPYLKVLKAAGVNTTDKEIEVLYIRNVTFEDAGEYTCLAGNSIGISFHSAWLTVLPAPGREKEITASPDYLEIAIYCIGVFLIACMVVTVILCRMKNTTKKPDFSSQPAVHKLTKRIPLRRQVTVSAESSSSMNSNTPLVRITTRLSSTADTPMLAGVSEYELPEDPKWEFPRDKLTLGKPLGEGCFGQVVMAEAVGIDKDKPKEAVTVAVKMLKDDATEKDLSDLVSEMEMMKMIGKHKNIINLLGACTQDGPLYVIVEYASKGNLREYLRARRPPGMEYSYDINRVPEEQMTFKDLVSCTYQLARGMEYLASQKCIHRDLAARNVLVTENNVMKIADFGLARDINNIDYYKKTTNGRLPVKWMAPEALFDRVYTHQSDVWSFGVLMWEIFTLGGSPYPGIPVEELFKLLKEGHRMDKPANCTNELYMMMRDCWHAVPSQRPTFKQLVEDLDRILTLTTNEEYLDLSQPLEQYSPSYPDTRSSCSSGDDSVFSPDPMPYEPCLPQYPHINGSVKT
Sequence of FGFR1 (P11362 22-822): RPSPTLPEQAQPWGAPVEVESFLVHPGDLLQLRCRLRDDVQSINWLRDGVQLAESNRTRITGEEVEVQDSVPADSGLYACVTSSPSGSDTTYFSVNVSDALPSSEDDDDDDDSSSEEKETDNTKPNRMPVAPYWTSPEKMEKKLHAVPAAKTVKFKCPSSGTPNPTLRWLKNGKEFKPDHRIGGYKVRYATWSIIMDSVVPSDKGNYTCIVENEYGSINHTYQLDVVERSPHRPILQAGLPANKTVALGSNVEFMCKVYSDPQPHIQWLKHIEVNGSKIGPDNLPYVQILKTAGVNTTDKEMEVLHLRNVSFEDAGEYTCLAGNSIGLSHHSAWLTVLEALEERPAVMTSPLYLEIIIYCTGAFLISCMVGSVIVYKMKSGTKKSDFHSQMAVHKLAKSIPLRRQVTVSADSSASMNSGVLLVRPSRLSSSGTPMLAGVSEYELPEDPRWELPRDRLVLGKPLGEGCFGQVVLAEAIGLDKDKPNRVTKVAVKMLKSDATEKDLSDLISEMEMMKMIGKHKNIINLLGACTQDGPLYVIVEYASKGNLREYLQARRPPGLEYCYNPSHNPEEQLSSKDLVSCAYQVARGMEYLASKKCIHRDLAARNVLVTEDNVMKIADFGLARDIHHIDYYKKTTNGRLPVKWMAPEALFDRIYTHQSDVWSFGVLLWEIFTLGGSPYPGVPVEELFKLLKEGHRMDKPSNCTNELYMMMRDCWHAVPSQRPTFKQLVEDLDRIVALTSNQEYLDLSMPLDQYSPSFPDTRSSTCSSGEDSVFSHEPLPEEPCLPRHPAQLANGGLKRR
Sequence of Hck (P08631 whole entry): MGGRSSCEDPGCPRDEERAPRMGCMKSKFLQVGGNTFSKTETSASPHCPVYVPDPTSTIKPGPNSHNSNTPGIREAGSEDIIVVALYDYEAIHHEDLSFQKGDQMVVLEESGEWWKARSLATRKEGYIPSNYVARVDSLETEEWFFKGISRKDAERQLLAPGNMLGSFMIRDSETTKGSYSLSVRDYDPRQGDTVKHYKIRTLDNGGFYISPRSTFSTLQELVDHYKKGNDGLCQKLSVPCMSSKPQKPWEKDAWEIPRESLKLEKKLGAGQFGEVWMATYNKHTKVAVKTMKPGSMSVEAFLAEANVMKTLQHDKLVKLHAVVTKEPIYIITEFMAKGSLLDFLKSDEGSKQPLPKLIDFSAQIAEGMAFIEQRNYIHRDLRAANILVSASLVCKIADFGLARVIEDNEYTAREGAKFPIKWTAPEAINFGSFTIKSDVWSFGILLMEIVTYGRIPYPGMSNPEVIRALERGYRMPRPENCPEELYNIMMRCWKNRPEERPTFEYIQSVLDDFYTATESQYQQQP
Sequence of LYN (P07948 whole entry): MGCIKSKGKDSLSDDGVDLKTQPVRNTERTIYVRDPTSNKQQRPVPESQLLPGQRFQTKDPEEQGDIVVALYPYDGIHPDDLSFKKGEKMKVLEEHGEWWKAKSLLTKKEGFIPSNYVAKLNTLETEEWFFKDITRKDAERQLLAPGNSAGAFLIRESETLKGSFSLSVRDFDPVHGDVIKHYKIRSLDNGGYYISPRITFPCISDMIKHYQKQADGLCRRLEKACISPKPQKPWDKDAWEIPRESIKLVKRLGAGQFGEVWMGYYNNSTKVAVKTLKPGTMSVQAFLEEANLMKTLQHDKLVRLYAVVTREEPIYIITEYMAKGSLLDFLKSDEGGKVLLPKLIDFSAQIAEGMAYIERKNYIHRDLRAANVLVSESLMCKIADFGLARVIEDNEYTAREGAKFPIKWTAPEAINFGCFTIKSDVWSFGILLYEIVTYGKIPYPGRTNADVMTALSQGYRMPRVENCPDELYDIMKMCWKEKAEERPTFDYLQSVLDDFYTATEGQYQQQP
Sequence of EPHB1 (P54762 18-984): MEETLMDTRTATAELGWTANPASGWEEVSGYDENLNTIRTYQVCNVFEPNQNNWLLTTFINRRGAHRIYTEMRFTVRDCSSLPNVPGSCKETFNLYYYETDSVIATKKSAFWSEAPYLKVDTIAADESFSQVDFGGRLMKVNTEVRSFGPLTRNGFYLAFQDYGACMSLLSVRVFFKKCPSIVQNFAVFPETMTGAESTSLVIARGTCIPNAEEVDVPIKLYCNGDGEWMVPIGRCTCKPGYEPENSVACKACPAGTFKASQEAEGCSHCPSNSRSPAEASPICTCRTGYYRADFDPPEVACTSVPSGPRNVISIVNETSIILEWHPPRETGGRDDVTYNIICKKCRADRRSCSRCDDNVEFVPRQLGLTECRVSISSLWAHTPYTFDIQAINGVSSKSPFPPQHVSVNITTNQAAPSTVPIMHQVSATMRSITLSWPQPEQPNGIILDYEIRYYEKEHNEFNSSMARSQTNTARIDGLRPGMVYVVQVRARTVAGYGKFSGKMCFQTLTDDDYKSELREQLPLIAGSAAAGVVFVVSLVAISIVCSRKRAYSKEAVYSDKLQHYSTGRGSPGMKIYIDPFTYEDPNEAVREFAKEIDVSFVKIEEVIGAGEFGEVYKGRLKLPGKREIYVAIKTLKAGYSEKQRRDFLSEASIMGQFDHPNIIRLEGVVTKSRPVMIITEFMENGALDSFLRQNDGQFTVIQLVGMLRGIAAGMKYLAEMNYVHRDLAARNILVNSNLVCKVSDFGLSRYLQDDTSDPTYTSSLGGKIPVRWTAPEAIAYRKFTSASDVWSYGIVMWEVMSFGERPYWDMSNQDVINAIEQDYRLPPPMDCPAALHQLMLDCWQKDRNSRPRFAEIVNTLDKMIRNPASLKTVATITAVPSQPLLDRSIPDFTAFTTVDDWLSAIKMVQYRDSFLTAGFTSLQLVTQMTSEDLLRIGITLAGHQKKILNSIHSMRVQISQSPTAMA

inhibition at 0.01 µM [1, 14]: < 39%
inhibition at 0.1 µM [1, 15]: < 39%
inhibition at 1 µM [1, 16]: > 60%
inhibition at 0.01 µM ([2]; FGFR2, 10 nM, read-out: Average % Inh @ 10 nM): < 39%
inhibition at 0.1 µM ([2]; FGFR2, 100 nM, read-out: Average % Inh @ 100 nM): < 39%
inhibition at 1 µM ([2]; FGFR2, 1 μM, read-out: Average % Inh @ 1 μM): > 60%
inhibition at 0.01 µM [3, 14]: < 39%
inhibition at 0.1 µM [3, 15]: 40 to 59%
inhibition at 1 µM [3, 16]: > 60%
inhibition at 1 µM [4]: 40 to 59%
inhibition at 0.01 µM [5, 14]: < 39%
inhibition at 0.1 µM [5, 15]: 40 to 59%
inhibition at 1 µM [5, 16]: > 60%
inhibition at 1 µM [6]: 40 to 59%
inhibition at 1 µM [7]: > 60%
inhibition at 1 µM [8]: > 60%
inhibition at 1 µM [9]: > 60%
inhibition at 0.01 µM [10, 14]: < 39%
inhibition at 0.1 µM [10, 15]: < 39%
inhibition at 1 µM [10, 16]: 40 to 59%
inhibition at 0.01 µM ([11]; FGFR1, 10 nM, read-out: Average % Inh @ 10 nM): < 39%
inhibition at 0.1 µM ([11]; FGFR1, 100 nM, read-out: Average % Inh @ 100 nM): < 39%
inhibition at 1 µM ([11]; FGFR1, 1 μM, read-out: Average % Inh @ 1 μM): > 60%
Average % Inh @ 10 nM ([12]; 10 nM): + (+=Low)
Average % Inh @ 100 nM ([12]; 100 nM): ++ (++=Med)
Average % Inh @ 1 μM ([12]; 1 μM): +++ (+++=High)
SMILES: O=C(Nc1ccc(F)nc1)C1CCCN1c1nc2c(c(Nc3cc(C4CC4)[nH]n3)n1)CCC2 (single isomer, unassigned) [Compound 2b, 1-(4-(5-cyclopropyl-1H-pyrazol-3-ylamino)-6,7-dihydro-5H-cyclopenta[d]pyrimidin-2-yl)-N-(6-fluoropyridin-3-yl)pyrrolidine-2-carboxamide]

SMILES: CC(C)c1cc(Nc2nc(N3CCCC3C(=O)Nc3ccc(F)nc3)nc3c2CCC3)n[nH]1 (single isomer, unassigned) [Compound 8b]
tumor burden ([13]; MCF7 breast cancer model, nude mice, 10 and 15 mg/kg/po, various schedules (FIG. 2)): dose-dependently and significantly reduced tumor burden
body weights of the mice ([13]; MCF7 xenograft model (FIG. 4)): dose-dependently reduced body weights
